Converted amounts (≈) assume the structure as drawn.
Tests used:
[1] = system: Human immunodeficiency virus 1; test: Antiviral activity against HIV-1 IIIB infected in human MT2 cells assessed as inhibition of viral growth; format: functional, organism-based; conditions: Human immunodeficiency virus 1, IIIB
[2] = Cytotoxicity against human PBMC cells; format: toxicity, cell-based
MT2 = test: Cytotoxicity against human MT2 cells assessed as reduction in cell growth; format: functional, cell-based
[3] = Solubility in water; format: physicochemical
C8166 = test: Cytotoxicity against human C8166 cells assessed as reduction in cell growth measured after 3 days by MTT assay; format: functional; conditions: C8166, 72 h, time 3 day
[4] = Cytotoxicity against human PBMC cells assessed as reduction in cell growth measured after 3 days by MTT assay; format: functional; conditions: 72 h, time 3 day
[5] = system: Human immunodeficiency virus 1; test: Antiviral activity against HIV-1 IIIB infected in human […] cells at 0.03 MOI assessed as reduction in viral replication incubated for 2 hrs by ELISA analysis; format: functional, organism-based; conditions: Human immunodeficiency virus 1, IIIB, C8166, 2 h
[6] = system: Human immunodeficiency virus 1; test: Antiviral activity against HIV-1 NL4-3 harboring reverse transcriptase K103N mutant infected in human C8166 cells assessed as reduction in virus-induced cytopathic effect measured for 2 hrs by ELISA analysis; format: functional, organism-based; conditions: Human immunodeficiency virus 1, NL4-3, C8166, 2 h
[7] = system: Human immunodeficiency virus 1; test: Antiviral activity against HIV-1 MN infected in human […] cells at 0.03 MOI assessed as reduction in viral replication incubated for 2 hrs by ELISA analysis; format: functional, organism-based; conditions: Human immunodeficiency virus 1, MN, C8166, 2 h
MT4 = test: Cytotoxicity against human MT4 cells assessed as reduction in cell growth measured after 3 days by MTT assay; format: functional; conditions: MT4, 72 h, time 3 day
[8] = system: Human immunodeficiency virus 1; test: Antiviral activity against HIV-1 NL4-3 harboring reverse transcriptase V108I mutant infected in human C8166 cells assessed as reduction in virus-induced cytopathic effect measured for 2 hrs by ELISA analysis; format: functional, organism-based; conditions: Human immunodeficiency virus 1, NL4-3, C8166, 2 h
[9] = system: Human immunodeficiency virus 1; test: Antiviral activity against HIV-1 A17 infected in human […] cells at 0.03 MOI assessed as reduction in viral replication incubated for 2 hrs by ELISA analysis; format: functional, organism-based; conditions: Human immunodeficiency virus 1, A17, C8166, 2 h
[10] = system: Human immunodeficiency virus 1; test: Antiviral activity against HIV-1 WAN infected in human […] cells at 0.03 MOI assessed as reduction in viral replication incubated for 2 hrs by ELISA analysis; format: functional, organism-based; conditions: Human immunodeficiency virus 1, WAN, C8166, 2 h
[11] = system: Human immunodeficiency virus 1; test: Antiviral activity against wild type HIV-1 NL4-3 harboring reverse transcriptase infected in human C8166 cells assessed as reduction in virus-induced cytopathic effect measured for 2 hrs by ELISA analysis; format: functional, organism-based; conditions: Human immunodeficiency virus 1, NL4-3, C8166, 2 h
[12] = system: Human immunodeficiency virus 1; test: Antiviral activity against HIV-1 NL4-3 harboring reverse transcriptase V106M mutant infected in human C8166 cells assessed as reduction in virus-induced cytopathic effect measured for 2 hrs by ELISA analysis; format: functional, organism-based; conditions: Human immunodeficiency virus 1, NL4-3, C8166, 2 h
[13] = system: Human immunodeficiency virus 1; test: Antiviral activity against HIV-1 TC-2 infected in human […] cells at 0.03 MOI assessed as reduction in viral replication incubated for 2 hrs by ELISA analysis; format: functional, organism-based; conditions: Human immunodeficiency virus 1, TC-2, C8166, 2 h
[14] = system: Human immunodeficiency virus 1; test: Antiviral activity against HIV-1 NL4-3 harboring reverse transcriptase V106A mutant infected in human C8166 cells assessed as reduction in virus-induced cytopathic effect measured for 2 hrs by ELISA analysis; format: functional, organism-based; conditions: Human immunodeficiency virus 1, NL4-3, C8166, 2 h
[15] = system: Human immunodeficiency virus 1; test: Antiviral activity against HIV-1 KM018 infected in human […] cells at 0.03 MOI assessed as reduction in viral replication incubated for 2 hrs by ELISA analysis; format: functional, organism-based; conditions: Human immunodeficiency virus 1, KM018, C8166, 2 h
[16] = target: T1, Human immunodeficiency virus type 1 reverse transcriptase (Human immunodeficiency virus 1, UniProt Q72547); test: Inhibition of HIV-1 Reverse transcriptase
[17] = system: Human immunodeficiency virus 1; test: Antiviral activity against HIV-1 NL4-3 harboring reverse transcriptase Y181C mutant infected in human C8166 cells assessed as reduction in virus-induced cytopathic effect measured for 2 hrs by ELISA analysis; format: functional, organism-based; conditions: Human immunodeficiency virus 1, NL4-3, C8166, 2 h
[18] = system: Human immunodeficiency virus 1; test: Antiviral activity against HIV1 harboring Y181C mutant infected in human MT4 cells; format: functional, organism-based; conditions: Human immunodeficiency virus 1, MT4
[19] = system: Human immunodeficiency virus 1; test: Antiviral activity against HIV-1 harboring L100I mutant infected in human MT4 cells assessed as virus-induced cytopathicity treated for 5 days by MTT assay; format: functional, organism-based; conditions: Human immunodeficiency virus 1, MT4, 120 h
[20] = system: Human immunodeficiency virus 1; test: Antiviral activity against HIV1 harboring Y188H mutant infected in MT4 cells assessed as virus-induced cytopathicity treated for 5 days by MTT assay; format: functional, organism-based; conditions: Human immunodeficiency virus 1, MT4, 120 h
[21] = system: Human immunodeficiency virus 1; test: Antiviral […] activity against HIV-1 A17 harboring reverse transcriptase K103N/Y181C double mutant infected in human C8166 cells assessed as reduction in virus-induced cytopathic effect incubated for 3 days by MTT assay; format: functional, organism-based; conditions: Human immunodeficiency virus 1, A17, C8166, 72 h
[22] = system: Human immunodeficiency virus 1; test: Antiviral activity against HIV-1 IIIB infected in human C8166 cells assessed as reduction in virus-induced cytopathic effect incubated for 3 days by MTT assay; format: functional, organism-based; conditions: Human immunodeficiency virus 1, IIIB, C8166, 72 h
[23] = system: Human immunodeficiency virus 1; test: Antiviral wild type activity against HIV-1 WAN infected in human PBMC cells assessed as reduction in virus-induced cytopathic effect incubated for 3 days by MTT assay; format: functional, organism-based; conditions: Human immunodeficiency virus 1, WAN, 72 h
[24] = system: Human immunodeficiency virus 1; test: Antiviral wild type activity against HIV-1 Ba-L infected in human TZM-bl cells assessed as reduction in virus-induced cytopathic effect incubated for 3 days by MTT assay; format: functional, organism-based; conditions: Human immunodeficiency virus 1, Ba-L, 72 h
[25] = system: Human immunodeficiency virus 1; test: Antiviral wild type activity against HIV-1 TC-1 infected in human PBMC cells assessed as reduction in virus-induced cytopathic effect incubated for 3 days by MTT assay; format: functional, organism-based; conditions: Human immunodeficiency virus 1, TC-1, PBMC, 72 h
[26] = system: Human immunodeficiency virus 1; test: Antiviral wild type activity against HIV-1 IIIB infected in human C8166 cells assessed as reduction in virus-induced cytopathic effect incubated for 3 days by MTT assay; format: functional, organism-based; conditions: Human immunodeficiency virus 1, IIIB, C8166, 72 h
[27] = system: Human immunodeficiency virus 1; test: Antiviral activity against wild type HIV-1 NL4-3 infected in human MT4 cells assessed as reduction in viral replication measured for 72 hrs by ELISA analysis; format: functional, organism-based; conditions: Human immunodeficiency virus 1, NL4-3, MT4, 72 h
Reverse transcriptase = Reverse transcriptase (Human immunodeficiency virus 1, UniProt Q9WKE8, K103N); test: Binding affinity to HIV-1 reverse transcriptase K103N mutant assessed as inhibition constant
[28] = target: T1, Human immunodeficiency virus type 1 reverse transcriptase; test: Binding affinity to wild type HIV-1 reverse transcriptase assessed as inhibition constant
Hepatitis B virus = test: Antiviral activity against Hepatitis B virus infected in human HepG2.2.15 cells assessed as inhibition of HBV DNA production by qRT-PCR analysis; format: functional, organism-based
Staphylococcus aureus = test: Antibacterial activity against Staphylococcus aureus; format: functional
Bacillus subtilis = test: Antibacterial activity against Bacillus subtilis; format: functional
dengue virus type 2 = test: Antiviral activity Dengue virus 2; format: functional, organism-based
dengue virus type 4 = test: Antiviral activity Dengue virus 4; format: functional, organism-based
dengue virus type 1 = test: Antiviral activity Dengue virus 1; format: functional, organism-based
dengue virus type 3 = test: Antiviral activity Dengue virus 3; format: functional, organism-based
[29] = Cytotoxicity against African green monkey Vero cells; format: toxicity, cell-based; conditions: chlorocebus sabaeus
[30] = Inhibition of HIV-1 Reverse transcriptase G190S mutant; parameters: species or system Human immunodeficiency virus 1
[31] = system: Vesicular stomatitis virus; test: Antiviral activity against Vesicular stomatitis virus infected in Vero cells assessed as inhibition of cytopathic effect measured after 96 hrs by fluorescence based CPE reduction method; format: functional, organism-based
Sindbis virus = test: Antiviral activity against Sindbis virus infected in Vero cells assessed as reduction in viral growth incubated for 96 hrs by plaque assay; format: functional, organism-based
Rubella virus = test: Antiviral activity against Rubella virus infected in Vero cells assessed as reduction in viral growth incubated for 96 hrs by plaque assay; format: functional, organism-based
[32] = system: Human immunodeficiency virus 1; test: Antiviral activity against HIV-1 harboring L100I mutant infected in human MT4 cells assessed as […]; format: functional, organism-based; conditions: Human immunodeficiency virus 1, MT4
[33] = system: Human immunodeficiency virus 1; test: Antiviral activity against HIV1 harboring K103N mutant infected in MT4 cells; format: functional, organism-based; conditions: Human immunodeficiency virus 1, MT4

With Nc1cc(Cl)nc(SCc2ccccc2)n1 the EC50 [1] was 400 nM, the IC50 [2] was greater than 16000 nM and the IC50 (MT2) was greater than 16000 nM.

With CCc1c(CC2CCCCC2)nc(SCC(=O)c2ccccc2)[nH]c1=O the solubility [3] was 4 µg/mL (≈ 10.8 µM), the CC50 (C8166) was greater than 100000 nM and the CC50 [4] was greater than 100000 nM. The EC50 [5] was 2 nM, the EC50 [6] was 709 nM and the EC50 [7] was 5 nM. It also gave a CC50 (MT4) greater than 100000 nM, an EC50 [8] of 12 nM and an EC50 [9] of 38900 nM. It also gave an EC50 [10] of 25 nM, an EC50 [11] of 7 nM and an EC50 [12] of 172 nM. For the same compound, the EC50 [13] was 8 nM, the EC50 [14] was 734 nM and the EC50 [15] was 41 nM. The IC50 [16] was 440 nM and the EC50 [17] was 241 nM.

C[C@H](Sc1nc(N)cc(Cl)n1)c1cc2ccoc2cn1 gave an EC50 [18] of 179 nM, an EC50 [19] of 39 nM and an EC50 [20] of 77 nM.

Compound CCc1c(CC2CCCCC2)nc(SCc2cc(-c3ccc(O)cc3)[nH]n2)[nH]c1=O has an EC50 [21] of 2770 nM, an EC50 [22] of 3 nM and an EC50 [23] of 56 nM. The EC50 [24] was 48 nM, the EC50 [25] was 14 nM and the EC50 [26] was 4 nM.

For Cc1c(C(C)c2c(F)cccc2Cl)nc(N(C)C)[nH]c1=O (stereo not drawn), the EC50 [27] was 3 nM, the Ki (Reverse transcriptase) was 750 nM and the Ki [28] was 17 nM.

For O=c1[nH]c(SC2O[C@H](CO)[C@H](O)[C@@H](O)[C@@H]2O)nc(Cc2ccccc2)c1Cc1ccccc1 (stereo partly drawn), the EC50 (Hepatitis B virus) was 200 nM.

Work on Cc1ccc(-c2nc(S/C(=N/Nc3ccc(O)cc3)C(=O)c3ccc(Br)cc3)[nH]c(=O)c2C#N)cc1 yielded an MIC (Staphylococcus aureus) of 0.19 µg/mL (≈ 0.339 µM) and an MIC (Bacillus subtilis) of 1.17 µg/mL (≈ 2.09 µM).

Compound CCc1c(CC2CCCCC2)nc(SCc2n[nH]c(-c3ccc(F)c(F)c3)c2Cl)[nH]c1=O has an EC50 (dengue virus type 2) of 9230 nM, an EC50 (dengue virus type 4) of 8910 nM and an EC50 (dengue virus type 1) of 1470 nM. It also gave an EC50 (dengue virus type 3) of 7080 nM and a CC50 [29] greater than 200000 nM.

Work on N#Cc1c(-c2ccc(Br)cc2)nc(S/C(=N/Nc2ccc(O)cc2)C(=O)c2ccc(Br)cc2)[nH]c1=O yielded an MIC (Staphylococcus aureus) of 1.17 µg/mL (≈ 1.87 µM) and an MIC (Bacillus subtilis) of 2.34 µg/mL (≈ 3.74 µM).

With Cc1cc(/C=C/C#N)cc(C)c1Nc1ncnc(Nc2ccc(C#N)cc2)n1 the IC50 [30] was 0.1 nM.

In the case of CCN(CC)CCc1cc(=O)[nH]c(SC)n1, the IC50 [31] is reported as 29 µg/mL (≈ 120 µM), the IC50 (Sindbis virus) is reported as 44.3 µg/mL (≈ 184 µM) and the IC50 (Rubella virus) is reported as 3.9 µg/mL (≈ 16.2 µM).

O=c1cc(Cc2ccccc2)nc(NCCCCO)[nH]1 showed an EC50 [32] of 525000 nM and an EC50 [33] of 840000 nM.

Reference: ChEMBL document CHEMBL6115028, “An Amazing 30-Year Journey around the DABO Family: A Medicinal Chemistry Lesson on a Versatile Class of Non-nucleoside HIV-1 Reverse Transcriptase Inhibitors” (J Med Chem, 2025)
